Patent US20260315434A1, “USE OF GUAIACOL SESQUITERPENE LACTONE DERIVATIVES” (NANJING UNIVERSITY OF CHINESE MEDICINE, priority 2023, published 2026)

Columns and labels:
[1] = 8 h; cited from earlier work
rat arthritis = conditions: in vivo; cited from earlier work
MDSCs = experiment: Inhibition of MDSC chemotaxis (Transwell, tumor-conditioned medium); assay type: cell-based, mouse; conditions: Mus musculus, read-out: Suppression Rate (MDSC chemotaxis)
Method: Hepa1-6 mouse hepatocellular carcinoma cells were uniformly seeded into 6-well plates. After cells reached confluence, supernatant was aspirated, and 1-1.5 mL fresh medium was added to each well. Following 24 h culture, supernatant was collected, centrifuged at 1600 rpm for 5 min, aspirated, and filtered through a 0.22 μm membrane to obtain tumor-conditioned medium for subsequent use. […] Under sterile conditions, remove the tibia, cut both ends of the bone, and aspirate the bone marrow into a 1 mL syringe. Repeat flushing into a 15 mL centrifuge tube. Centrifuge at 1600 rpm for 5 min to collect bone marrow cells. Wash twice with 1×PBS. […] Count cells, adjust density to 1×10^6 cells/mL, and uniformly seed into 24-well plates at 300 μL per well. […] Centrifuge at 1600 rpm for 5 min, remove supernatant, resuspend cells in 300 μL fresh medium, and place into Transwell chambers. […] Co-culture for 24 h.

[2] = tested on: IgE and inflammatory markers of AD mice; experiment: MC903-induced atopic dermatitis, oral administration: serum IgE and ear mRNA of inflammatory markers; assay type: in vivo, mouse; design: scale not given here
Method: Except for the Normal group, all other groups underwent AD modeling: 20 μL of MC903 solution (also known as calcipotriol, purchased from Shanghai Yuanye Biotechnology Co., Ltd., used for inducing atopic models) was applied to each mouse's ears once daily for 14 consecutive days to induce the atopic dermatitis model. […] Measure ear thickness changes every 2 days using an electronic caliper before modeling and after treatment initiation.

[3] = Safety evaluation, mouse survival rate (30 days oral); assay type: in vivo, C57BL/6 mice; conditions: for survival at 720 h: mouse, in vivo, female, oral
Text: The Normal group received an equal volume of solvent (saline).

[4] = tested on: serum creatinine and blood urea nitrogen; experiment: Diabetic nephropathy (STZ/HFD), serum creatinine and BUN; assay type: in vivo, C57/BL6J mice; conditions: 8 weeks
Method: Experimental animals: C57/BL6J mice, male, 12 weeks old, purchased from GemPharmatech LLC. Production license number: SCXK(Su)2023-0009. […] Animals were acclimated for 7 days before use in experiments.
Administer streptozotocin (STZ, 50 mg/kg) via intraperitoneal injection for 5 consecutive days. After 72 hours, select mice with fasting blood glucose levels exceeding 16.7 mmol/L as model mice. […] Model mice were fed a high-fat diet (HFD) providing 60% of energy from fat for 8 weeks. After 8 weeks, gavage administration commenced.
Specimen Collection: One hour after the last drug administration, enucleate the eyeball to collect blood. Allow blood to stand at room temperature for 2 hours, then centrifuge at 3000 rpm for 20 minutes. Aspirate the serum, aliquot it, and store at −70° C. for future use. After blood collection, euthanize the mice by cervical dislocation. Open the abdominal cavity, remove the kidneys, and dissect away the perirenal fat and capsule. Store the tissue at −70° C. for future use.
Serum Creatinine (Scr) and Blood Urea Nitrogen (BUN) Assay: For each sample, 10 μL of serum was used for creatinine and urea level detection. Samples were added sequentially strictly following the kit instructions. After incubation at 37° C., absorbance values were measured using an enzyme-linked immunosorbent assay (ELISA) reader. The concentration levels of each indicator were calculated based on the standard curve.

[5] = tested on: inflammatory factors Il1b, Il6 and Hscrp in serum; experiment: HFD-induced atherosclerosis, serum Il1b, Il6 and Hscrp; assay type: in vivo, APOE−/− mice; design: Serum Il1b / Serum Il6 / Serum Hscrp: unit not given here; conditions: for Serum Hscrp / Serum Il1b / Serum Il6: 8 weeks
Method: Experimental animals: C57BL and APOE^−/− mice, male, 8 weeks old, purchased from GemPharmatech LLC. Production license number: SCXK(Su)2023-0009. […] They were acclimated for 7 days before use in experiments.
Normal group (C57BL), model group (HFD/APOE^−/−), positive control drug VTX3232 (10 mg/kg) group, compound 103 (0.3, 1, 3, 10 and 30 mg/kg) group, with 6 mice per group. Oral administration was performed continuously for 8 weeks.
Allow blood to stand at room temperature for 2 hours, then centrifuge at 3000 rpm for 20 minutes. Aspirate the serum, aliquot it, and store at −70° C. for future use. After blood collection, euthanize mice by cervical dislocation. Open the abdominal cavity, remove heart and aorta. […] Store remaining tissues at −80° C. for future use.
Serum Total Il1, Il6 and Hscrp Assay: For each sample, 10 μL of serum was used for […]. Samples were added sequentially strictly according to the kit instructions, incubated at 37° C., and measured for absorbance values using an enzyme-linked immunosorbent assay (ELISA) reader. The concentration levels of each indicator were calculated based on the standard curve.

For C=C1C(=O)O[C@@H]2[C@H]3C(C)=CC[C@@]34O[C@@]4(C)CC[C@@H]12 [Arg, Arglabin, reference compound], which “degradation rate in gastric fluid” value [1] is on record?
The value was 50%.

And the joint swelling (rat arthritis)?
Its joint swelling is “significantly suppressed”.

What about the “serum levels of TNF-α, IL-1β, and IL-6” value (rat arthritis) of the same compound?
Its value is “lowered”.

What about the inhibition at 1 µM (MDSCs) of the same compound?
Its inhibition at 1 µM is 42.5%.

And the inhibition at 10 µM (MDSCs)?
Its inhibition at 10 µM is 73.2%.

Which results are given for CN(C)C[C@@H]1C(=O)O[C@H]2[C@H]1CC[C@@]1(C)C[C@]13CC[C@@](C)(O)[C@H]23 [Compound 20]?
I14 mRNA expression, ear ([2]; 0.1 mg/kg oral): 2.77 ± 0.16; I113 mRNA expression, ear ([2]; 0.1 mg/kg oral): 2.04 ± 0.20; I131 mRNA expression, ear ([2]; 0.1 mg/kg oral): 2.64 ± 0.22; TSLP mRNA expression, ear ([2]; 0.1 mg/kg oral): 3.38 ± 0.51; Tnf mRNA expression, ear ([2]; 0.1 mg/kg oral): 4.04 ± 0.50; I14 mRNA expression, ear ([2]; 1 mg/kg oral): 2.65 ± 0.22; I113 mRNA expression, ear ([2]; 1 mg/kg oral): 1.82 ± 0.21; TSLP mRNA expression, ear ([2]; 1 mg/kg oral): 2.36 ± 0.32; Tnf mRNA expression, ear ([2]; 1 mg/kg oral): 2.63 ± 0.55; I14 mRNA expression, ear ([2]; 10 mg/kg oral): 2.09 ± 0.26; I113 mRNA expression, ear ([2]; 10 mg/kg oral): 1.66 ± 0.30; I131 mRNA expression, ear ([2]; 10 mg/kg oral): 1.68 ± 0.13; TSLP mRNA expression, ear ([2]; 10 mg/kg oral): 1.33 ± 0.13; Tnf mRNA expression, ear ([2]; 10 mg/kg oral): 1.22 ± 0.18; survival rate ([3]; 500 and 1000 mg/kg oral): no significant effect; survival at 720 h ([3]; 500 mg/kg): 100%; survival at 720 h ([3]; 1000 mg/kg): 100%

What does the source list for CC1=C2CC[C@@](C)(OC(=O)N3CCCC3)[C@@H]2[C@H]2OC(=O)[C@@H](CN3CCCC3)[C@@H]2CC1 [Compound 103]?
BUN ([4]; 1 mg/kg gavage): 54.34 ± 10.67; Scr (serum creatinine) ([4]; 1 mg/kg gavage): 23.48 ± 6.73; BUN ([4]; 10 mg/kg gavage): 38.10 ± 2.88; Scr (serum creatinine) ([4]; 10 mg/kg gavage): 14.90 ± 8.06; Serum Hscrp ([5]; 0.3 mg/kg, oral): 9.67 ± 1.25; Serum Il1b ([5]; 0.3 mg/kg, oral): 277.35 ± 176.70; Serum Il6 ([5]; 0.3 mg/kg, oral): 95.42 ± 26.76; Serum Hscrp ([5]; 1 mg/kg, oral): 7.25 ± 0.77; Serum Il1b ([5]; 1 mg/kg, oral): 255.38 ± 185.47; Serum Il6 ([5]; 1 mg/kg, oral): 90.32 ± 8.01; Serum Hscrp ([5]; 3 mg/kg, oral): 6.67 ± 0.46; Serum Il1b ([5]; 3 mg/kg, oral): 173.42 ± 132.43; Serum Il6 ([5]; 3 mg/kg, oral): 82.19 ± 4.83; Serum Hscrp ([5]; 10 mg/kg, oral): 5.80 ± 0.41; Serum Il1b ([5]; 10 mg/kg, oral): 77.91 ± 41.08; Serum Il6 ([5]; 10 mg/kg, oral): 50.08 ± 9.76; Serum Hscrp ([5]; 30 mg/kg oral): 4.88 ± 0.63; Serum Il1b ([5]; 30 mg/kg oral): 62.93 ± 23.79; Serum Il6 ([5]; 30 mg/kg oral): 34.82 ± 20.80; serum Il1b, Il6 and Hscrp levels compared with the model group ([5]; 0.3, 1, 3, 10, 30 mg/kg oral): markedly lower
